Test results: patent US9096559B2, “4-carboxybenzylamino derivatives as histone deacetylase inhibitors” (Merck Sharp & Dohme Corp., priority 2007, dated 2015)

Biological target: histone deacetylase, subtype 1 (HDAC1) (Homo sapiens (Human), UniProt Q13547)
Test: HDAC1-Flag in vitro deacetylation assay
Format: biochemical
Details: IP = inflection point; read-out: HDAC1 IP (inflection point)
Experimental: Novel compounds were tested for their ability to inhibit histone deacetylase, subtype 1 (HDAC1) using an in vitro deacetylation assay. The enzyme source for this assay was an epitope-tagged human HDAC1 complex immuno-purified from stably expressing mammalian cells. The substrate consisted of a commercial product containing an acetylated lysine side chain (BIOMOL Research Laboratories, Inc., Plymouth Meeting, Pa.). Upon deacetylation of the substrate by incubation with the purified HDAC1 complex, a fluorophore is produced that is directly proportional to the level of deacetylation.

Sequence of histone deacetylase, subtype 1 (HDAC1) (Q13547 whole entry): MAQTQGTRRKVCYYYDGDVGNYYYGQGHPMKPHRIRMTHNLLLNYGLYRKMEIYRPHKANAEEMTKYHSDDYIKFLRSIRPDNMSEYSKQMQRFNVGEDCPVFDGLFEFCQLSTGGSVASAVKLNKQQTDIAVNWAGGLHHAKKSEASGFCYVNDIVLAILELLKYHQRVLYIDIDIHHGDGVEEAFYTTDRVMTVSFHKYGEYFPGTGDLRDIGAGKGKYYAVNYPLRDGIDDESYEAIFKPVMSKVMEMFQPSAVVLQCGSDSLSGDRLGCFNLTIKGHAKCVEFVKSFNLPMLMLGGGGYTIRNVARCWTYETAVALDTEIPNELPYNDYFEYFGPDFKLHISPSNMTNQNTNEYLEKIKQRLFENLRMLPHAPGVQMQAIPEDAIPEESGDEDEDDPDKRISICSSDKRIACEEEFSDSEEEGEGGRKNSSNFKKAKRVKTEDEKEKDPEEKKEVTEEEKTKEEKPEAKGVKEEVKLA

SMILES	IC50 [nM]
Cc1nc(-c2ccccc2)sc1CNCc1ccc(C(=O)Nc2cc(-c3ccccc3)ccc2O)cc1 [Example 74, N-(4-hydroxy-3-biphenylyl)-4-({[(4-methyl-2-phenyl-1,3-thiazol-5-yl)methyl]amino}methyl)benzamide]	690
O=C(Nc1cc(-c2ccccc2)ccc1O)c1ccc(CNC2CCCC2)cc1 [Example 77, 4-[(cyclopentylamino)methyl]-N-(4-hydroxy-3-biphenylyl)benzamide]	150
O=C(Nc1cc(-c2ccccc2)ccc1O)c1ccc(CNCCCN2CCCC2)cc1 [Example 82, N-(4-hydroxy-3-biphenylyl)-4-({[3-(1-pyrrolidinyl)propyl]amino}methyl)benzamide]	91
O=C(Nc1cc(-c2ccccc2)ccc1O)c1ccc(CN2CCNCC2)cc1 [Example 83, N-(4-hydroxy-3-biphenylyl)-4-(1-piperazinylmethyl)benzamide]	65
O=C(Nc1cc(-c2ccccc2)ccc1O)c1ccc(CN2CCOCC2)cc1 [Example 85, N-(4-hydroxy-3-biphenylyl)-4-(4-morpholinylmethyl)benzamide]	48
CC(C)OCCCNCc1ccc(C(=O)Nc2cc(-c3ccccc3)ccc2O)cc1 [Example 86, N-(4-hydroxy-3-biphenylyl)-4-{[(3-isopropoxypropyl)amino]methyl}benzamide]	95
CC1CCN(Cc2ccc(C(=O)Nc3cc(-c4ccccc4)ccc3O)cc2)CC1 [Example 87, N-(4-hydroxy-3-biphenylyl)-4-[(4-methyl-1-piperidinyl)methyl]benzamide]	220
CN(Cc1ccccc1)Cc1ccc(C(=O)Nc2cc(-c3ccccc3)ccc2O)cc1 [Example 88, 4-{[benzyl(methyl)amino]methyl}-N-(4-hydroxy-3-biphenylyl)benzamide]	350
O=C(Nc1cc(-c2ccccc2)ccc1O)c1ccc(CN2CCc3ccccc3C2)cc1 [Example 90, 4-(3,4-dihydro-2(1H)-isoquinolinylmethyl)-N-(4-hydroxy-3-biphenylyl)benzamide]	250
CC(C)NCCNCc1ccc(C(=O)Nc2cc(-c3ccccc3)ccc2O)cc1 [Example 91, N-(4-hydroxy-3-biphenylyl)-4-({[2-(isopropylamino)ethyl]amino}methyl)benzamide]	44
CCN(C)Cc1ccc(C(=O)Nc2cc(-c3ccccc3)ccc2O)cc1 [Example 94, 4-{[ethyl(methyl)amino]methyl}-N-(4-hydroxy-3-biphenylyl)benzamide]	31
O=C(Nc1cc(-c2ccccc2)ccc1O)c1ccc(CN2Cc3ccccc3C2)cc1 [Example 95, 4-(1,3-dihydro-2H-isoindol-2-ylmethyl)-N-(4-hydroxy-3-biphenylyl)benzamide]	27000
O=C(Nc1cc(-c2ccccc2)ccc1O)c1ccc(CNCCNc2ccccc2)cc1 [Example 97, 4-{[(2-anilinoethyl)amino]methyl}-N-(4-hydroxy-3-biphenylyl)benzamide]	260
CNCCCN(C)Cc1ccc(C(=O)Nc2cc(-c3ccccc3)ccc2O)cc1 [Example 99, N-(4-hydroxy-3-biphenylyl)-4-({methyl[3-(methylamino)propyl]amino}methyl)benzamide]	18
CN1CCN(Cc2ccc(C(=O)Nc3cc(-c4ccccc4)ccc3O)cc2)CC1 [Example 100, N-(4-hydroxy-3-biphenylyl)-4-[(4-methyl-1-piperazinyl)methyl]benzamide]	2400
CNCCN(C)Cc1ccc(C(=O)Nc2cc(-c3ccccc3)ccc2O)cc1 [Example 101, N-(4-hydroxy-3-biphenylyl)-4-({methyl[2-(methylamino)ethyl]amino}methyl)benzamide]	35
CCN1CCC(CNCc2ccc(C(=O)Nc3cc(-c4ccccc4)ccc3O)cc2)CC1 [Example 102, 4-({[(1-ethyl-4-piperidinyl)methyl]amino}methyl)-N-(4-hydroxy-3-biphenylyl)benzamide]	65
CN(C)C1CCN(Cc2ccc(C(=O)Nc3cc(-c4ccccc4)ccc3O)cc2)C1 (stereo not shown) [Example 106, 4-{[3-(dimethylamino)-1-pyrrolidinyl]methyl}-N-(4-hydroxy-3-biphenylyl)benzamide]	50
O=C(Nc1cc(-c2ccccc2)ccc1O)c1ccc(CNC2Cc3ccccc3C2)cc1 [Example 108, 4-[(2,3-dihydro-1H-inden-2-ylamino)methyl]-N-(4-hydroxy-3-biphenylyl)benzamide]	160

Now from value to compound:

IC50 [nM]	SMILES
81	COC(=O)c1ccc(-c2ccc(N)c(NC(=O)c3ccc(CNC(=O)OCc4cccnc4)cc3)c2)cc1 [Example 2, methyl 4′-amino-3′-[({4-[({[(pyridin-3-ylmethyl)oxy]carbonyl}amino)methyl]phenyl}carbonyl)amino]biphenyl-4-carboxylate]
17	Nc1ccc(-c2cccnc2)cc1NC(=O)c1ccc(CNC(=O)OCc2cccnc2)cc1 [Example 3, pyridin-3-ylmethyl[(4-{[(2-amino-5-pyridin-3-ylphenyl)amino]carbonyl}phenyl)methyl]carbamate]
20	O=C(NCc1ccc(C(=O)Nc2cc(-c3ccccc3)ccc2O)cc1)OCc1cccnc1 [Example 5, pyridin-3-ylmethyl[(4-{[(4-hydroxybiphenyl-3-yl)amino]carbonyl}phenyl)methyl]carbamate]
70	CC(C)(C)OC(=O)NCc1ccc(C(=O)Nc2cc(-c3ccccc3)ccc2O)cc1 [Example 7, 1,1-dimethylethyl[(4-{[(4-hydroxybiphenyl-3-yl)amino]carbonyl}phenyl)methyl]carbamate]
28	NCc1ccc(C(=O)Nc2cc(-c3ccccc3)ccc2O)cc1 [Example 8, 4-(aminomethyl)-N-(4-hydroxybiphenyl-3-yl)benzamide]
970	O=C(Nc1cc(-c2ccccc2)ccc1O)c1ccc(CNCCc2ccccc2)cc1 [Example 71, N-(4-hydroxy-3-biphenylyl)-4-{[(2-phenylethyl)amino]methyl}benzamide]
1800	O=C(Nc1cc(-c2ccccc2)ccc1O)c1ccc(CNCCc2ccc(Br)cc2)cc1 [Example 72, 4-({[2-(4-bromophenyl)ethyl]amino}methyl)-N-(4-hydroxy-3-biphenylyl)benzamide]
110	CC(C)CNCc1ccc(C(=O)Nc2cc(-c3ccccc3)ccc2O)cc1 [Example 73, N-(4-hydroxy-3-biphenylyl)-4-[(isobutylamino)methyl]benzamide]
76	O=C(Nc1cc(-c2ccccc2)ccc1O)c1ccc(CNC2CC2)cc1 [Example 75, 4-[(cyclopropylamino)methyl]-N-(4-hydroxy-3-biphenylyl)benzamide]
89	O=C(Nc1cc(-c2ccccc2)ccc1O)c1ccc(CNc2ccccc2)cc1 [Example 76, 4-(anilinomethyl)-N-(4-hydroxy-3-biphenylyl)benzamide]
72	O=C(Nc1cc(-c2ccccc2)ccc1O)c1ccc(CNCC2CC2)cc1 [Example 78, 4-{[(cyclopropylmethyl)amino]methyl}-N-(4-hydroxy-3-biphenylyl)benzamide]
120	CN(C)CCNCc1ccc(C(=O)Nc2cc(-c3ccccc3)ccc2O)cc1 [Example 80, 4-({[2-(dimethylamino)ethyl]amino}methyl)-N-(4-hydroxy-3-biphenylyl)benzamide]
32	O=C(Nc1cc(-c2ccccc2)ccc1O)c1ccc(CNCc2cccnc2)cc1 [Example 81, N-(4-hydroxy-3-biphenylyl)-4-{[(3-pyridinylmethyl)amino]methyl}benzamide]
9.9	O=C(Nc1cc(-c2ccccc2)ccc1O)c1ccc(CNc2ccncc2)cc1 [Example 84, N-(4-hydroxy-3-biphenylyl)-4-[(4-pyridinylamino)methyl]benzamide]
450	O=C(Nc1cc(-c2ccccc2)ccc1O)c1ccc(CNCCCc2ccccc2)cc1 [Example 89, N-(4-hydroxy-3-biphenylyl)-4-{[(3-phenylpropyl)amino]methyl}benzamide]
100	CC(C)CCNCc1ccc(C(=O)Nc2cc(-c3ccccc3)ccc2O)cc1 [Example 92, N-(4-hydroxy-3-biphenylyl)-4-{[(3-methylbutyl)amino]methyl}benzamide]
340	CN(CCc1ccccc1)Cc1ccc(C(=O)Nc2cc(-c3ccccc3)ccc2O)cc1 [Example 93, N-(4-hydroxy-3-biphenylyl)-4-{[methyl(2-phenylethyl)amino]methyl}benzamide]
360	O=C(Nc1cc(-c2ccccc2)ccc1O)c1ccc(CNCCOc2ccccc2)cc1 [Example 96, N-(4-hydroxy-3-biphenylyl)-4-{[(2-phenoxyethyl)amino]methyl}benzamide]
2100	O=C(Nc1cc(-c2ccccc2)ccc1O)c1ccc(CNCc2cccs2)cc1 [Example 98, N-(4-hydroxy-3-biphenylyl)-4-{[(2-thienylmethyl)amino]methyl}benzamide]
13	CN(Cc1ccc(C(=O)Nc2cc(-c3ccccc3)ccc2O)cc1)c1ccncc1 [Example 103, N-(4-hydroxy-3-biphenylyl)-4-{[methyl(4-pyridinyl)amino]methyl}benzamide]
33	CN(CCc1ccncc1)Cc1ccc(C(=O)Nc2cc(-c3ccccc3)ccc2O)cc1 [Example 104, N-(4-hydroxy-3-biphenylyl)-4-({methyl[2-(4-pyridinyl)ethyl]amino}methyl)benzamide]
2500	O=C(Nc1cc(-c2ccccc2)ccc1O)c1ccc(CNCCc2cccnc2)cc1 [Example 105, N-(4-hydroxy-3-biphenylyl)-4-({[2-(3-pyridinyl)ethyl]amino}methyl)benzamide]
72	NCCNCc1ccc(C(=O)Nc2cc(-c3ccccc3)ccc2O)cc1 [Example 107, 4-{[(2-aminoethyl)amino]methyl}-N-(4-hydroxy-3-biphenylyl)benzamide]
100	O=C(Nc1cc(-c2ccccc2)ccc1O)c1ccc(CNCCCc2ccncc2)cc1 [Example 109, N-(4-hydroxy-3-biphenylyl)-4-({[3-(4-pyridinyl)propyl]amino}methyl)benzamide]
